Reference: patent US12527773B2, “Flavi-block: a pan-flavivirus inhibitor” (Baden-Württemberg Stiftung GmbH, priority 2020, dated 2026)
Structures can show the parent of a compound that is named as a salt.

Tests used:
[1] = test system: hematopoietic stem cell formation; assay: Effect on zebrafish hematopoietic stem cell formation (in situ runx-1+c-myb); assay type: in vivo; settings: 36 hpf
Experimental: Zebrafish embryos were exposed 20-30 min after fertilization to differing concentrations of the compounds C10 and D1 (5 μM; 15 μM; 25 μM) or to medium containing the corresponding solvent (DMSO) concentration. Therefore, 3-5 embryos were sorted into each of three wells of a 96 well plate containing 200 μl of medium. For phenotype analysis, triplicates were imaged after 6-7 h post fertilization (hpf) at approximately shield stage, after 24 hpf and after 48 hpf. Dead +unfertilized embryos were removed. For imaging at 24 hpf +48 hpf; embryos were anesthetized using MESAB. (A) Diagramm showing the percentage of embryos at each time point either developing normal (blue color) or with the indicated phenotype. (B) representative images of embryos treated with the indicated compounds, or controls at the respective time points. (C) To additionally elucidate the influence on hematopoietic stem cell formation, approx. half of the embryos were sampled at 36 hpf and an in situ staining for runx-1+c-myb was performed. Shown are representative images of hematopoietic stem cell formation with the treatment indicated.
Embryos were exposed 20-30 min after fertilization to differing concentrations of the compounds C10 and D1 (5 μM; 15 μM; 25 μM) or to medium containing the corresponding solvent (DMSO) concentration. […]

[2] = test system: VP1 polyomavirus, LP1 HPV16, p24 HIV, BSA, GFP; assay: Specificity in the cross-linking assay: other capsid and non-related proteins; assay type: biochemical
Experimental: (§1) DSS was included as a positive control.
To study the specificity of C10, capsid proteins of other viruses (VP1 polyomavirus, LP1 HPV16, and p24 HIV) as well as non-related proteins (BSA, GFP), were incubated in the so-called cross-linking assay, with DSS or C10.

DENV capsid protein = molecular target: T1, DENV capsid protein (Dengue virus type 2, UniProt P29990); assay: Crosslinking of recombinant DENV capsid protein (Western blot); assay type: biochemical
T1 construct: recombinant DENV capsid protein; made in house; host or cells: E. coli
Source text: as §1

in vitro = settings: for % Remain. Mean: mouse plasma, 1 μM, 37° C.
Experimental: Plasma stability is defined as the percentage of parent compound remaining in plasma over the time.
Incubations were carried out in 5 aliquots of 70 μL each (one for each time point), in duplicates. Test compounds (1 μM, final DMSO concentration 1%) were incubated at 37° C. with shaking at 100 rpm. Five time points over 120 minutes have been analyzed. The reactions were stopped by adding 420 μL of acetonitrile-water mixture (90:10) with subsequent plasma proteins sedimentation by centrifuging at 5500 rpm for 5 minutes. Supernatants were analyzed by the HPLC system coupled with tandem mass spectrometer. The percentage of the test compounds remaining after incubation in plasma and their half-lives (T1/2) were calculated.

[3] = Metabolic stability in mouse liver microsomes; settings: male, Balb/c, mouse, microsomes, pH 7.4
Experimental: Microsomal incubations were carried out in 96-well plates in 5 aliquots of […] each (one for each time point). […] Control incubations were performed replacing the NADPH-cofactor system with PBS. […] Incubations were performed in duplicates. Five time points over 40 minutes had been analyzed. The reactions were stopped by adding 12 volumes of 90% acetonitrile-water to incubation aliquots, followed by protein sedimentation by centrifuging at 5500 rpm for 3 minutes. […]. Supernatants were analyzed using the HPLC system coupled with tandem mass spectrometer.
The elimination constant (kel), half-life (t½) and intrinsic clearance (Clint) were determined in plot of In(AUC) versus time, using linear regression analysis (In order to indicate the quality of the linear regression analysis, the R (correlation coefficient) values are provided. In some cases, the last time point is excluded from the calculations to ensure acceptable logarithmic linearity of decay): […]

HCV = assay: IC50 against HCV, RLuc reporter virus, re-infection of naïve Huh7.5 cells; assay type: cell-based, Hepatitis C virus; settings: serial dilutions 20 to 0.0024 μM
Experimental: Concerning the SAR studies, 45 C10 derivatives were designed and synthesized, which were tested regarding both their antiviral activity against HCV and DENV, as well as their cytotoxicity. For the activity test, a construct including the viral genome and the reporter gene RLuc was used.
Huh7.5 cells were electroporated with the corresponding RNA, seeded in 96-well plate and treated during 24/48 h with C10 and the different compounds. The supernatant of virus-producing cells was used to re-infect naïve Huh7.5 cells, which were then lysed and their RLuc signal measured.

Huh7.5 cells = assay: SAR test of C10 derivatives: cytotoxicity (CellTiterGlo); settings: 48 h

CCN1/C(=C/C=C/c2sc3cc(N)ccc3[n+]2CC)Sc2cc(N)ccc21.[I-] [D1, 6-amino-2-[(1E)-3-[(2Z)-6-amino-3-ethyl-2,3-dihydro-1,3-benzothiazol-2-ylidene]prop-1-en-1-yl]-3-ethyl-1,3-benzothiazol-3-ium iodide]
hematopoietic stem cell formation [1]: no difference to the WT embryos

O=C(CCCCCCC(=O)ON1C(=O)CCC1=O)ON1C(=O)CCC1=O [DSS, disuccinimidyl suberate, reference compound]
crosslinking effect on other capsid and non-related proteins [2]: clear effect of monomer consumption and dimer formation
effect on oligomerization state of DENV capsid protein (DENV capsid protein): stabilizes mainly the dimer

CC(C)[N+](C)(CCOC(=O)C1c2ccccc2Oc2ccccc21)C(C)C [Propantheline, Propantheline bromide, reference compound]
% Remain. Mean (in vitro; 0 min): 100%
% Remain. Mean (in vitro; 20 min): 66%
% Remain. Mean (in vitro; 40 min): 29%
% Remain. Mean (in vitro; 60 min): 13%
% Remain. Mean (in vitro; 120 min): 2%
half-life at 1 μM (in vitro; mouse, plasma): 20 min

CC(C)NCC(O)COc1cccc2ccccc12 (racemic) [Propranolol, (+,−) Propranolol hydrochloride, reference compound]
half-life at 2 mM [3]: 53.9 min

CC(=O)Nc1ccc2c(c1)S/C(=C\C=C\c1sc3cc(NC(C)=O)ccc3[n+]1C)N2C [compound 45, 6-acetamido-2-((1E,3E)-3-(6-acetamido-3-methylbenzo[d]thiazol-2(3H)-ylidene)prop-1-en-1-yl)-3-methylbenzo[d]thiazol-3-ium iodide]
potency relative to C10 (IC50 against HCV) (HCV): 2.5 times
cytotoxicity (Huh7.5 cells): not cytotoxic at the concentrations in which they are antiviral

CCN1/C(=C/C(C)=C/c2sc3cc(NC(C)=O)ccc3[n+]2CC)Sc2cc(NC(C)=O)ccc21 [compound 46, 6-acetamido-2-((1E,3E)-3-(6-acetamido-3-ethylbenzo[d]thiazol-2(3H)-ylidene)-2-methylprop-1-en-1-yl)-3-ethylbenzo[d]thiazol-3-ium iodide]
potency relative to C10 (IC50 against HCV) (HCV): 1.5 times
cytotoxicity (Huh7.5 cells): not cytotoxic at the concentrations in which they are antiviral
